# Assay results taken from patent publication US10001472B2, “3D determination of cell chirality” (Rensselaer Polytechnic Institute, priority 2015, dated 2018).
# Tested on: Madin-Darby canine kidney (MDCK) epithelial cells
# Experiment: 3D cell chirality (rotation direction) of cells in bilayer MATRIGEL substrate
# Type: cell-based
# Conditions: MDCK cells in 3D substrate, FIG. 5
# Description: The cell line used was Madin-Darby canine kidney (MDCK) epithelial cells. The 3D substrate culture system included a base layer was composed of 100% MATRIGEL®. The base layer was seeded with a single cell suspension of MDCK epithelial cells. After cell attachments to the base layer, a top layer was generated by overlaying culture with 2% MATRIGEL®.
# Self-organization of the epithelial cells during microtissue development was observed using phase contrast imaging and confocal microscopy. The cells were stained with DAPI (4′,6-diamidino-2-phenylindole), Phalloidin, and ZO-1 antibody.
# Time-lapse images were collected for at least 2 hours at intervals of 1 minute over a period of 6 days. Videos were processed in ImageJ and analyzed for quantification of collective rotational direction. Direction of rotation was categorized into clockwise (CW), counterclockwise (CCW), complex rotation, and no rotation. Phase-contrast images of microtissue development from a single cell embedded within the multilayer MATRIGEL® system over time.
# Latrunculin A was used to study the role of actin function in left right asymmetry. Latrunculin A is a drug which inhibits actin polymerization. […] These studies are consistent with 2D studies.
compound,measurement,setting,value
C/C1=C/C(=O)O[C@@H]2C[C@@H](CC[C@H](C)/C=C\C=C\CC1)O[C@@](O)([C@@H]1CSC(=O)N1)C2 [Latrunculin A],effect on cell chirality (rotation direction),"base layer 100% MATRIGEL, top layer 2% MATRIGEL",reversal of chirality
same,concentration dependence of chirality effect,higher concentrations of Latrunculin A,increasing clockwise chirality
